Measurements taken from patent US20180051284A1, “INHIBITORS OF MIR-17-92 CLUSTER FOR ANTI-TUMOR ACTIVITY IN MULTIPLE MYELOMA AND OTHER MALIGNANCIES” (priority 2014, published 2018).
l = locked nucleic acid (LNA); d = 2'-deoxy (DNA)

Assays:
AMO1/abzb xenografts = test: In vivo tumor growth of Bortezomib-refractory AMO1/abzb xenografts (IVIS); parameters: species or system mice; settings: I.P. Bortezomib 1 mg/kg; Bortezomib-refractory model
Source text: Male CB-17 severe combined immunodeficient (SCID) mice (6- to 8-weeks old; Harlan Laboratories, Inc., Indianapolis) were housed and monitored in our Animal Research Facility. All experimental procedures and protocols had been approved by the Institutional Ethical Committee (Magna Graecia University) and conducted according to protocols approved by the National Directorate of Veterinary Services (Italy). In accordance with institutional guidelines, mice were sacrificed when tumors reached 2 cm in diameter or in the event of paralysis or major compromise, to prevent unnecessary suffering. Animal experimental procedures have been performed as in previous reports (Di Martino et al, CCR 2012; Di Martino el al. Oncotarget 2013, Di Martino et al PlosOne 2014). […] Mice were also inoculated with 5×10^6 luciferase gene-marked U266, AMO-1, AMO-1/abzb, treatments were performed intraperitoneally (i.p.), and tumor volume were measured by IVIS Lumina II.
In vivo anti-MM activity of LNA gapmer_06 was next evaluated in NOD/SCID mice bearing subcutaneous AMO1 xenografts. […] Tumors volume were measured using IVIS LUMINA II Imaging We next evaluate the in vivo activity in Bortezomib-refractory model of human MM. […] Tumors volume were measured using IVIS LUMINA II Imaging System.

[1] = test system: miR-17-92 primary transcript (pri-miRs) and mature miR-17-92 cluster members; test: q-RT-PCR of miR-17-92 member family and two pri-miRs after transfection of MM cells; type: cell-based, Human; settings: 48 hours after transfection with 25 nM; NCI-H929 and RPMI-8226 cells; relative to RNase-free water
Experimental: 3×10^5 cells were transfected using Neon Transfection System (Invitrogen, Calif.,U.S.), (2 pulses at 1150, 30ms). The transfection efficiency evaluated by flow-cytometric analysis relative to a FAM dye—labeled anti-miR—negative control reached 85% to 90%.
Reverse transcription (RT) of both primary and mature miRNAs was performed using TaqMan® MicroRNA Assays, following a procedure for multiplexing the RT step (Life Technologies, Publication Part Number 4465407). Briefly, 500 ng of total RNA, prepared with the TRIzol® Reagent (Invitrogen), underwent reverse transcription by the Taq-Man® MicroRNA RT Kit. In this reaction, the RT primer pool was composed by the individual RT primers for each microRNA belonging to the miR-17-92 cluster and two RT primers to allow the reverse transcription of the miR-17-92 primary miRNA. Real-time PCR was performed using TaqMan® MicroRNA Assays together with the TaqMan® Universal PCR Master Mix on an ViiA7 System (Life Technologies). Both primary and mature microRNAs expressions were relatively quantified using the 2-ΔΔCt method (Applied Biosystems User Bulletin No. 2), and expressed as the relative quantity of target miRNA normalized to the RNU44 (assay ID 001094) housekeeping gene. Comparative real-time polymerase chain reaction (RT-PCR) was performed in triplicate, including no-template controls. Relative expression was calculated using the comparative cross threshold (Ct) method.
By the use of a custom q-RT-PCR plate specifically designed by us to detect all six mature miR-17-92 members and the primary transcript by two different assays (pri-mir-17/18a/19a and pri-mir-19b1/20a/92a1), we quantified in a panel of 11 MM cell lines the levels of the different miRNAs and pri-miRs.

| Compound | tumor growth (IVIS tumor volume) (AMO1/abzb xenografts) | downregulation of primary and mature miRNA sequences (q-RT-PCR) [1] |
| --- | --- | --- |
| CC(C)C[C@H](NC(=O)[C@H](Cc1ccccc1)NC(=O)c1cnccn1)B(O)O [Bortezomib, reference compound] | no effect on tumor-growth | – |
| gapmer_15: LNA/DNA gapmer, SEQ ID 7 (16 mer): +A*+G*+C*A*C*T*C*A*A*C*A*T*C*+A*+G*+C (AGCACTCAACATCAGC; sugars from the 5' end l3 d10 l3, all phosphorothioate, methylation of C not given here) | – | strongest downregulation of primary transcripts and miR-17-92 mature members |
